Measured values: patent US20230270804A1, “ANTI-HYPERCHOLESTEROLEMIA COMPOSITION AND A METHOD OF MANUFACTURING THE SAME” (NBI BIOSCIENCES PRIVATE LIMITED, priority 2020, published 2023)

Experiments:
HMG CoA Reductase = biological target: T1, HMG CoA Reductase (Rattus norvegicus, UniProt P51639); experiment: Therapeutic study: HMG CoA reductase activity in liver homogenate; assay type: in vivo, Wistar strain albino rats; conditions: after necropsy
T1 construct: The tissue homogenate was prepared by homogenizing 1 gm of tissue (liver) with 10 ml of saline arsenate solution; from tissue; host or cells: rat liver homogenate
T1 sequence (P51639 1-887): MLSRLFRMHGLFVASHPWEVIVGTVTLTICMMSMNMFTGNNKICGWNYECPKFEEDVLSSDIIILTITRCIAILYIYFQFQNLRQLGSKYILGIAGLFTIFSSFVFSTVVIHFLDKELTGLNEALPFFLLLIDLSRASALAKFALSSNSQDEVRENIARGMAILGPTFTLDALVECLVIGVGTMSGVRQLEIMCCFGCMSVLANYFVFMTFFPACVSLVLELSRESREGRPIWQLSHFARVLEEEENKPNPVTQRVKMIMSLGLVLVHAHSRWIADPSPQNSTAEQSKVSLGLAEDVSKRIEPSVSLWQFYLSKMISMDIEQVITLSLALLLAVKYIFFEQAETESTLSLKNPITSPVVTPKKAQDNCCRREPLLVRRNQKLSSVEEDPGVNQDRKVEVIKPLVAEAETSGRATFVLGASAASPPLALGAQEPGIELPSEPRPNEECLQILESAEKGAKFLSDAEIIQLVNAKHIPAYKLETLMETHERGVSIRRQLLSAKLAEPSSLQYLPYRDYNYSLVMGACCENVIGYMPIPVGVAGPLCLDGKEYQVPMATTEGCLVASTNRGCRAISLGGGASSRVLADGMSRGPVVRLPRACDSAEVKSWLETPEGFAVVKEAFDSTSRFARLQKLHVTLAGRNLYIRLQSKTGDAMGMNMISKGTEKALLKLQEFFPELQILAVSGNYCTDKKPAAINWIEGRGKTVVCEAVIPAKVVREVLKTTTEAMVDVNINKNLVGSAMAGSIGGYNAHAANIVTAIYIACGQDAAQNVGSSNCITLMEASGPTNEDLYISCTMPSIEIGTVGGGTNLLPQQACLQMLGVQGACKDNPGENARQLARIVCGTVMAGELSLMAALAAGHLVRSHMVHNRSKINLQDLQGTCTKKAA
Protocol: (§1) 1.5-2 ml blood sample was taken from retino-orbital chamber in vials for biochemical estimations at every 15 days. Investigations performed included detailed Total Cholesterol—TC (mg/dl), Triglyceride—TG (mg/dl), High Density Lipoprotein—HDL-C (mg/dl), Low Density Lipoprotein—LDL-C (mg/dl), Very Low-Density Lipoprotein—VLDL (mg/dl), WBC (10^3/u1), RBC (10^6/u1), Hb (g/dl), PCV (%), Reticulocyte (%), Platelet count 10^5/mm^3, Clotting time (Sec), Neutrophils, Lymphocyte, Monocyte and Eosinophil. The estimations were done with Ecoline kits from Erba Mannheim, ERBA diagnostics Mannheml, Germany using Semi Autoanalyzer RX50 of MicroLabs Instruments and COUNCELL21 of Tulip Diagnostics Pvt. Ltd. Lipid peroxidation (Plasma & Liver), HMG Co-Reductase, Creatine phosphokinase (CPK), Lactate dehydrogenase (LDH), SGOT and SGPT were estimated at the end of both the studies using the kits.
The tissue homogenate was prepared by homogenizing 1 gm of tissue (liver) with 10 ml of saline arsenate solution. Further equal volumes of the fresh 10% tissue homogenate and diluted perchloric acid were mixed and allowed to stand for 5 minute and centrifuge (2000 rpm, 10 minutes). […] The readings were taken after 10 minutes at 540 nm vs. a similarly treated saline/arsenate blank.

[1] = system: hypercholesterolemia induced wistar rats' models; experiment: Therapeutic study: lipid profile (TC, TG, HDL-C, LDL-C, VLDL); assay type: in vivo, Wistar strain albino rats
Protocol: Wistar strain albino rats of body weight ranging from 190-225 g were selected for the present study. The temperature and humidity were kept at optimum (22+2° C.; 40-70% and animals were exposed to natural chronological day night cycles. The experiments were carried out in conformity with the Institutional Animal Ethics Committee.
The 6 groups were as follows: • 1. Normal Control • 2.
as §1

## CC(C)c1c(C(=O)Nc2ccccc2)c(-c2ccccc2)c(-c2ccc(F)cc2)n1CC[C@@H](O)C[C@@H](O)CC(=O)O [Statin, Atorvastatin]
HMG CoA Reductase; HFD Continued
  HMG Co Reductase: 224.83 ± 18.48 U/mg
HMG CoA Reductase; HFD Discontinued
  HMG Co Reductase: 170.03 ± 2.71 U/mg
[1]; HFD continued, day 0
  HDL-C: 40.33 ± 2.08 mg/dL
  LDL-C: 91.67 ± 3.06 mg/dL
  TC: 139.67 ± 4.04 mg/dL
  TG: 38.67 ± 2.08 mg/dL
  VLDL: 3.87 ± 0.31 mg/dL
[1]; HFD continued, day 15
  HDL-C: 40.83 ± 1.15 mg/dL
  LDL-C: 92.83 ± 3.82 mg/dL
  TC: 138.00 ± 4.00 mg/dL
  TG: 38.00 ± 1.80 mg/dL
[1]; HFD continued, day 30
  HDL-C: 42.45 ± 0.44 mg/dL
  LDL-C: 91.33 ± 0.21 mg/dL
  TC: 134.00 ± 3.00 mg/dL
  TG: 37.30 ± 0.44 mg/dL
  VLDL: 3.91 ± 0.05 mg/dL
[1]; HFD continued, day 45
  HDL-C: 40.20 ± 2.07 mg/dL
  LDL-C: 90.37 ± 0.85 mg/dL
  TC: 126.33 ± 4.51 mg/dL
  TG: 34.73 ± 1.37 mg/dL
  VLDL: 3.86 ± 0.11 mg/dL
[1]; HFD continued, day 60
  HDL-C: 39.82 ± 1.88 mg/dL
  LDL-C: 89.52 ± 1.20 mg/dL
  TC: 125.15 ± 4.20 mg/dL
  TG: 34.41 ± 1.26 mg/dL
  VLDL: 3.82 ± 0.10 mg/dL
[1]; HFD discontinued, day 0
  HDL-C: 41.67 ± 1.53 mg/dL
  LDL-C: 90.67 ± 3.21 mg/dL
  TC: 134.33 ± 4.04 mg/dL
  TG: 38.33 ± 2.52 mg/dL
  VLDL: 3.83 ± 0.38 mg/dL
[1]; HFD discontinued, day 15
  HDL-C: 40.17 ± 0.58 mg/dL
  LDL-C: 90.60 ± 3.55 mg/dL
  TC: 133.00 ± 4.58 mg/dL
  TG: 37.50 ± 2.00 mg/dL
  VLDL: 3.91 ± 0.34 mg/dL
[1]; HFD discontinued, day 30
  HDL-C: 41.23 ± 0.38 mg/dL
  LDL-C: 85.03 ± 0.21 mg/dL
  TC: 129.33 ± 2.08 mg/dL
  TG: 35.97 ± 0.74 mg/dL
  VLDL: 3.88 ± 0.04 mg/dL
[1]; HFD discontinued, day 45
  HDL-C: 39.70 ± 0.46 mg/dL
  TC: 117.67 ± 6.66 mg/dL
  TG: 34.53 ± 0.83 mg/dL
  VLDL: 3.69 ± 0.05 mg/dL
[1]; HFD discontinued, day 60
  HDL-C: 38.94 ± 0.82 mg/dL
  LDL-C: 83.69 ± 1.18 mg/dL
  TC: 116.49 ± 6.04 mg/dL
  TG: 34.19 ± 0.83 mg/dL
[1]; therapeutic study, 60 days
  level of HDL: 39 mg/dL
  reduction in LDL: 8%
  reduction in total cholesterol: 13%
